Measurements from patent publication US20230023092A1, “TREATMENT OF DEPRESSION AND OTHER VARIOUS DISORDERS WITH PSILOCYBIN” (COMPASS […], priority 2019, published 2023).

Tested on: healthy subjects
Assay: Phase 1 study: adverse events (TEAEs, MedDRA coded)
Assay type: in vivo, human
Protocol: A Phase 1 randomized, double-blind, placebo-controlled study to evaluate the effect of psilocybin on cognitive and emotional processing as compared to placebo in healthy volunteers was conducted. The study investigated the short-term (Day 7) and long-term (Day 28) effects of moderate (10 mg) and high doses (25 mg) of psilocybin on key domains of cognition, such as episodic memory, attention, working and spatial memory, social cognition and elements of executive function, including cognitive flexibility.
Each subject was assigned 1 treatment bottle containing 5 capsules packaged in a double-blind fashion, depending on the randomized treatment arm, the bottle contained one of the following: • a. Psilocybin 10 mg: 2×5-mg oral psilocybin capsules plus 3×placebo capsules • b. Psilocybin 25 mg: 5×5-mg oral psilocybin capsules • c. Placebo: 5×placebo capsules
Each 5-mg oral psilocybin capsules comprised 5 mg crystalline psilocybin in the form or Polymorph A, 12.5 mg of SMCC 50, 79.5 mg of SMCC 90, 1 mg sodium starch glycolate, 1 mg colloidal silicon dioxide, and 1 mg sodium stearyl fumarate
Adverse events: Throughout the course of the study, all AEs were monitored and recorded. Each AE was classified according to the following criteria: • i. […] Moderate: The AE produces some impairment of functioning, but is not hazardous to the subject's health. • iii. Severe: The AE produces significant impairment of functioning or incapacitation and is a definite hazard to the subject's health.
Visit 3 (V3): Drug Administration (Day 0): The subject was asked to eat a light breakfast at least two hours prior to coming to the clinic for study drug administration. On Day 0 (V3), the subject underwent the SSTS, had vital signs obtained, medications reviewed, AEs recorded and eligibility reviewed prior to being randomized to study drug. The study drug was administered to up to six subjects simultaneously in individual beds separated by a curtain. The subject was invited to put on eyeshades and headphones, lie down and listen to calming music for the rest of the session (six hours). The subject was supported 1:1 with a chaperone and supervised by the study psychiatrist and lead therapist.
During administration of psilocybin, each subject received one-on-one support from a trained assisting therapist and each dosing session was supervised by a study psychiatrist and a lead therapist. The study drug was administered simultaneously to up to six participants as a single 5-capsule oral dose (10 mg psilocybin: 2×5-mg psilocybin capsules plus 3×placebo capsules; 25 mg psilocybin: 5×5-mg psilocybin capsules; placebo: 5×placebo capsules). Twenty-five dosing sessions were completed, with up to six participants dosed simultaneously per session. Each session lasted approximately 6 to 8 hours with subjects encouraged to relax and engage in introspection for the duration. After the acute effects of the study drug had subsided, subjects were discharged.

CN(C)CCc1c[nH]c2cccc(OP(=O)(O)O)c12 [Psilocybin, psilocybin]
25 (83.3): Nervous system disorders, N (%) (25 mg oral)
9 (30.0): Psychiatric disorders, worst severity Severe, N (%) (25 mg oral)
135: Psychiatric disorders, Events (25 mg oral)
7 (23.3): Mood altered, worst severity Severe, N (%) (25 mg oral)
92%: Adverse events likely to be psychedelic in nature resolved on the day of onset or within a day of onset (human, in vivo, oral, 12 weeks)
5 (16.7): Illusion, worst severity Severe, N (%) (25 mg oral) | Somatic hallucination, N (%) (25 mg oral)
0: Infections and infestations, worst severity Moderate, Events (25 mg oral) | Infections and infestations, worst severity Moderate, N (%) (25 mg oral) | Infections and infestations, worst severity Severe, Events (25 mg oral) | Infections and infestations, worst severity Severe, N (%) (25 mg oral) | Investigations, worst severity Moderate, Events (25 mg oral) | Investigations, worst severity Moderate, N (%) (25 mg oral) | Investigations, worst severity Severe, Events (25 mg oral) | Investigations, worst severity Severe, N (%) (25 mg oral) | Memory impairment, Events (25 mg oral) | Memory impairment, N (%) (25 mg oral) | Musculoskeletal and connective tissue disorders, worst severity Severe, Events (25 mg oral) | Musculoskeletal and connective tissue disorders, worst severity Severe, N (%) (25 mg oral) | Paraesthesia, worst severity Severe, Events (25 mg oral) | Paraesthesia, worst severity Severe, N (%) (25 mg oral) | Psychomotor skills impaired, Events (25 mg oral) | Psychomotor skills impaired, N (%) (25 mg oral) | Selected TEAE: Nervous system disorders, Events (25 mg oral) | Selected TEAE: Nervous system disorders, N (%) (25 mg oral) | Tension headache, worst severity Severe, Events (25 mg oral) | Tension headache, worst severity Severe, N (%) (25 mg oral) | Time perception altered, worst severity Severe, Events (25 mg oral) | Time perception altered, worst severity Severe, N (%) (25 mg oral) | Reported 'Mood altered' events: Being less judgmental (number) (25 mg psilocybin (n = 30)) | Reported 'Mood altered' events: Calm (number) (25 mg psilocybin (n = 30)) | Reported 'Mood altered' events: Feeling more moody/sensitive (number) (25 mg psilocybin (n = 30)) | Reported 'Mood altered' events: Feeling of adrenaline release (number) (25 mg psilocybin (n = 30)) | Reported 'Mood altered' events: Feeling rested (number) (25 mg psilocybin (n = 30)) | Reported 'Mood altered' events: Increased wit (number) (25 mg psilocybin (n = 30)) | Reported 'Mood altered' events: Negative mood (number) (25 mg psilocybin (n = 30)) | Reported 'Mood altered' events: Sense of openness (number) (25 mg psilocybin (n = 30)) | Reported 'Mood altered' events: Unusual appreciation of music (number) (25 mg psilocybin (n = 30))
29 (96.7): Psychiatric disorders, N (%) (25 mg oral)
6 (20.0): Mood altered, worst severity Moderate, N (%) (25 mg oral) | Tension headache, N (%) (25 mg oral) | Time perception altered, N (%) (25 mg oral)
16 (53.3): Nervous system disorders, worst severity Mild, N (%) (25 mg oral) | Psychiatric disorders, worst severity Moderate, N (%) (25 mg oral)
96.7%: Adverse events reported by % of subjects (25 mg oral, 12-week study)
2: Somatic hallucination, worst severity Mild, Events (25 mg oral) | Somatic hallucination, worst severity Moderate, Events (25 mg oral) | Somatic hallucination, worst severity Severe, Events (25 mg oral) | Tension headache, worst severity Moderate, Events (25 mg oral) | Time perception altered, worst severity Mild, Events (25 mg oral) | Reported 'Mood altered' events: Increased empathy (number) (25 mg psilocybin (n = 30)) | Reported 'Mood altered' events: Sense of oneness (number) (25 mg psilocybin (n = 30))
6: Somatic hallucination, Events (25 mg oral) | Tension headache, Events (25 mg oral) | Time perception altered, Events (25 mg oral)
4: Illusion, worst severity Mild, Events (25 mg oral) | Infections and infestations, Events (25 mg oral) | Infections and infestations, worst severity Mild, Events (25 mg oral) | Musculoskeletal and connective tissue disorders, Events (25 mg oral) | Paraesthesia, Events (25 mg oral) | Tension headache, worst severity Mild, Events (25 mg oral) | Time perception altered, worst severity Moderate, Events (25 mg oral) | Reported 'Mood altered' events: Reflections (number) (25 mg psilocybin (n = 30))
10: Nervous system disorders, worst severity Moderate, Events (25 mg oral)
1 (3.3): Investigations, N (%) (25 mg oral) | Investigations, worst severity Mild, N (%) (25 mg oral) | Musculoskeletal and connective tissue disorders, worst severity Moderate, N (%) (25 mg oral) | Nervous system disorders, worst severity Severe, N (%) (25 mg oral) | Paraesthesia, worst severity Moderate, N (%) (25 mg oral) | Somatic hallucination, worst severity Severe, N (%) (25 mg oral) | Substance-induced psychotic disorder, N (%) (25 mg oral)
25: Mood altered, Events (25 mg oral)
18 (60.0): Illusion, N (%) (25 mg oral)
3: Mental fatigue, Events (25 mg oral) | Mood altered, worst severity Mild, Events (25 mg oral) | Musculoskeletal and connective tissue disorders, worst severity Mild, Events (25 mg oral) | Nausea, Events (25 mg oral) | Paraesthesia, worst severity Mild, Events (25 mg oral) | Respiratory, thoracic and mediastinal disorders, Events (25 mg oral)
67%: Adverse events that appeared and resolved on day 0 (day of dosing) (all adverse events, all arms)
3 (10.0): Illusion, worst severity Mild, N (%) (25 mg oral) | Mental fatigue, N (%) (25 mg oral) | Musculoskeletal and connective tissue disorders, N (%) (25 mg oral) | Nausea, N (%) (25 mg oral) | Paraesthesia, worst severity Mild, N (%) (25 mg oral) | Respiratory, thoracic and mediastinal disorders, N (%) (25 mg oral)
one: Median duration of adverse events (all treatment arms, 12-week trial)
26: Illusion, Events (25 mg oral)
24: Nervous system disorders, worst severity Mild, Events (25 mg oral)
43: Nervous system disorders, Events (25 mg oral)
10 (33.3): Illusion, worst severity Moderate, N (%) (25 mg oral)
96%: 'mood altered' AEs positive or neutral in nature (all arms)
27 (90.0): Selected TEAE: Psychiatric disorders, N (%) (25 mg oral)
5: Psychiatric disorders, worst severity Mild, Events (25 mg oral)
7: Illusion, worst severity Severe, Events (25 mg oral) | Mood altered, worst severity Moderate, Events (25 mg oral)
15 (50.0): Mood altered, N (%) (25 mg oral)
27: Psychiatric disorders, worst severity Severe, Events (25 mg oral)
12: Illusion, worst severity Moderate, Events (25 mg oral)
2 (6.7): Mood altered, worst severity Mild, N (%) (25 mg oral) | Musculoskeletal and connective tissue disorders, worst severity Mild, N (%) (25 mg oral) | Somatic hallucination, worst severity Mild, N (%) (25 mg oral) | Somatic hallucination, worst severity Moderate, N (%) (25 mg oral) | Tension headache, worst severity Moderate, N (%) (25 mg oral) | Time perception altered, worst severity Mild, N (%) (25 mg oral)
8: Reported 'Mood altered' events: Introspection (number) (25 mg psilocybin (n = 30))
4 (13.3): Infections and infestations, N (%) (25 mg oral) | Infections and infestations, worst severity Mild, N (%) (25 mg oral) | Paraesthesia, N (%) (25 mg oral) | Psychiatric disorders, worst severity Mild, N (%) (25 mg oral) | Tension headache, worst severity Mild, N (%) (25 mg oral) | Time perception altered, worst severity Moderate, N (%) (25 mg oral)
45: Psychiatric disorders, worst severity Moderate, Events (25 mg oral)
higher: Incidence of Illusion, Hallucination (visual), Mood altered, Headache, Fatigue and Euphoric mood compared to placebo (both 10 and 25 mg)
9: Mood altered, worst severity Severe, Events (25 mg oral)
106: Selected TEAE: Psychiatric disorders, Events (25 mg oral)
1: Investigations, Events (25 mg oral) | Investigations, worst severity Mild, Events (25 mg oral) | Musculoskeletal and connective tissue disorders, worst severity Moderate, Events (25 mg oral) | Nervous system disorders, worst severity Severe, Events (25 mg oral) | Paraesthesia, worst severity Moderate, Events (25 mg oral) | Substance-induced psychotic disorder, Events (25 mg oral) | Reported 'Mood altered' events: Clarity of thought (number) (25 mg psilocybin (n = 30)) | Reported 'Mood altered' events: Contemplative state (number) (25 mg psilocybin (n = 30)) | Reported 'Mood altered' events: Increased compassion (number) (25 mg psilocybin (n = 30)) | Reported 'Mood altered' events: Increased creativity (number) (25 mg psilocybin (n = 30)) | Reported 'Mood altered' events: Increased sense of connectedness (number) (25 mg psilocybin (n = 30)) | Reported 'Mood altered' events: Laughter (number) (25 mg psilocybin (n = 30)) | Reported 'Mood altered' events: More socially upbeat (number) (25 mg psilocybin (n = 30)) | Reported 'Mood altered' events: Saw themselves from a new perspective (number) (25 mg psilocybin (n = 30))
8 (26.7): Nervous system disorders, worst severity Moderate, N (%) (25 mg oral)
